Read-outs that look alike come from different tables or passages of the source.
Assays:
[1] = system: guinea pig ileum; test: antispasmodic activity against contractions of guinea pig ileum induced by histamine and acetylcholine; conditions: Cavia porcellus
Method: The antispasmodic activity of the products according to the invention was tested against contractions of guinea pig ileum, such as induced by histamine and acetylcholine. These tests allow to reveal an antihistaminic activity, an anticholinergic activity or a musculotropic antispasmodic activity. The response to the contracting agent (submaximum concentration)was repeated every 5 minutes before and after injection of increasing doses of the tested products (10^-8 to 10^-5 M). The various doses were added at intervals of 20 minutes or of the time necessary to the development of the maximum effect.
The percentage of inhibition under the influence of tested products was calculated and the theoretical concentration ensuring 50% inhibition was graphically determined for each experience. These values were expressed as -log IC50 (M). The standard value for papaverine was 4.50, namely an effective concentration of 30 μM.

[2] = system: epididymal fat of the rat; test: effect on in vitro induced lipolysis in epididymal fat of the rat; conditions: in words
Method: The effect on the in vitro induced lipolysis in the epididymal fat of the rat was measured by colorimetry of fatty acids liberated during the tissue incubation under the experimental conditions such as described hereinafter.
Male Sprague-Dawley rats weighing about 250 gr were sacrified by cervical dislocation after a fasting period of 18 hours. The quickly taken-off epididymal fat was placed in a Krebs-Ringer phosphate buffer at pH 7.4, containing 1% albumin.
The tissue was cut into fragments of ±20 mgr, which were dried on filter paper and homogeneously distributed in groups of ±150 mgr weighed with precision. Each group was pre-incubated (15 minutes, 37° C., stirring) in 5 ml of Krebs-Ringer phosphate buffer (pH 7.4) containing 7% of bovine albumin and the product to be tested.
After pre-incubation, 1 ml of the medium is taken off for determining the amount of basic lipolysis. The induction agent in solution in 0.1 ml of phosphate buffer is then added to 4 ml of the remaining medium and after incubation of 90 minutes under the same conditions, liberated fatty acids are titrated in 1 ml of medium according to a variant of the colorimetric method of W. G. Duncombe (Biochem. J., 83, 6P, 1962; Biochem. J., 88, 7-10, 1963; Clin. Chem. Acta, 9, 122-125, 1964).

[3] = system: femoral arterial circulation; test: peripheral vasodilator activity on anaesthetized dog, femoral arterial perfusion pressure; type: in vivo; conditions: 30 μg/kg injected in femoral perfusion (some also at other doses); in words
Method: The peripheral vasodilator activity of the products according to the invention was measured on anaesthetized dog at the level of the femoral arterial circulation. To this end, the femoral artery the collaterals of which were ligaturated was perfused with a constant flow rate of blood taken from aorta. Thus the perfusion pressure measured at the level of the femoral artery, varied as a function of the resistance of perfused area. The tested products and the corresponding solvents were directly injected in the system at the dose of 30 μg/kg. The blood circulation rate being maintained constant, a vasodilation was thus measured by a decrease of the perfusion pressure. The latter is rated in comparison with the action of papaverine considered as standard and injected once per group of 4 products.
When being of interest, the products were tested at other doses under the same conditions. The vasodilation activity was rated as follows:
+: 1/3 of the papaverine activity
++: 2/3 of the papaverine activity
+++: activity equal to that of papaverine (i.e. 30 to 40 mm Hg)
++++: activity higher than that of papaverine.

[4] = system: human platelet rich plasma (PRP); test: blood platelet aggregation (Born method) in human platelet rich plasma; type: cell-based; conditions: 24 μl of 2×10^-2 M solution added to 300 μl PRP; induced by thrombofax or collagen; in words
Method: The blood platelet aggregation was studied according to the Born Method (J. Physiol., 168, 178, 1963). Nine volumes of human venous blood were taken off and anticoagulated with one volume of a trisodium citrate solution (0.129 M). The blood was centrifuged at 200 g for 10 minutes (22° C.) for preparing the platelet rich plasma (PRP). Methanol or acetone was used in order to obtain 2×10^-2 M solutions of the various involved products, 24 μl of each product were added to 300 μl of PRP. For controls, 24 μl of the various hereinabove mentioned solvents were used. The products were pre-incubated in the presence of PRP for 4 minutes at 37° C. under continuous stirring (1100 rpm). After this incubation period, the platelet aggregation was induced by addition of 100 μl of thrombofax or collagen. The aggregation phenomenon was quantified by graphical determination of the aggregation amplitude (A).
The inhibition percentage of the agglutination amplitude was calculated as follows:
A (% inhibition): 100-(Ax /Ao)×100
Ax : value of aggregation amplitude in the presence of examined products
Ao : value of aggregation amplitude for controls

[5] = system: spontaneously hypertensive rats; test: antihypertensive activity, oral administration to non-anesthetized spontaneously hypertensive rats, systolic arterial pressure (plethysmographic); type: in vivo, rat; conditions: 60 mgr/kg oral (some also at other doses); in words
Method: Their antihypertensive activity was tested by oral administration to non-anesthetized, spontaneously hypertensive rats, on which the systolic arterial pressure is measured at the level of the median coccygeal artery by means of a plethysmographic method (J. Roba, G. Lambelin, A. F. De Schaepdryver, Arch. int. Pharmacodyn., 200, 182, 1972). The arterial pressure was measured every 30 minutes from two hours before to three hours after oral administration of 60 mgr/kg of the tested products or of a placebo (1% tragacanth gum mucilage). When being of interest, the products were tested at other doses under similar conditions. Only rats having a systolic pressure of 180 to 220 mm Hg were used. Two rats were used for each product. The treatments were made without the knowledge of the person making the measures. The antihypertensive effects were rated as follows:
+: reduction of 10 to 20 mm Hg
++: reduction of 20 to 30 mm Hg
+++: reduction of 30 to 50 mm Hg
++++: reduction >50 mm Hg

[6] = contractions induced by histamine and acetylcholine, 10^-8 to 10^-5 M, read-out: -log IC50 (M), antispasmodic activity (converted)

Row | SMILES | IC50 [1, 6] | effect on induced lipolysis [2] | peripheral vasodilator activity (compared with papaverine) [3] | anti-aggregation effect [4] | further results
1 | CCCCCCCCNC(C)C(OC(=O)C(C)(C)C)c1ccc(SC(C)C)cc1 (centres unmarked) [Compound 1] | < 1e-06 M | active | – | – | IC50 ([1]; 50% inhibition of contractions, converted from -log IC50, read-out: effective concentration / concentration corresponding to -log IC50 (converted)): < 1e-06 M
2 | CCCCCCCCNC(C)C(O)c1ccc(C)cc1 (centres unmarked) [Compound 75] | – | active | – | – | –
3 | CCCCCCCCNC(C)C(OC(C)=O)c1ccc(SC(C)C)cc1.Cl (centres unmarked) [Compound 3, 1-Acetyloxy-1-(4-isopropylthiophenyl)-2-n-octylaminopropane hydrochloride] | – | – | at least equal to that of papaverine | strong anti-aggregation effect | IC50 ([1]; read-out: -log IC50 (M), antispasmodic activity (converted)): < 1e-06 M; IC50 ([1]; read-out: effective concentration / concentration corresponding to -log IC50 (converted)): < 1e-06 M
4 | CCCCCCCCNC(C)C(O)c1ccccc1 (centres unmarked) [Compound 76] | – | active | – | – | –
5 | CCCCCCCCNC(C)C(OC(=O)CC(C)(C)C)c1ccc(SC(C)C)cc1.Cl (centres unmarked) [Compound 30, 1-neopentylcarbonyloxy-1-(4-isopropylthiophenyl)-2-n-octylaminopropane (hydrochloride)] | < 1e-06 M | – | – | strong anti-aggregation effect | antihypertensive activity [5]: suitable antihypertensive activity
6 | CCCCCCCCNC(C)C(O)c1ccc(OC)cc1 (centres unmarked) [Compound 74, 1-(4-methoxyphenyl)-2-n-octylamino-1-propanol] | – | active | at least equal to that of papaverine | – | –
